Experimental data published in patent publication US20140073631A1 (priority 2012, published 2014).
Values after ≈ are worked out from the molar mass of the structure shown. Like-named read-outs stand apart in the source and are kept apart here.

What was measured:
Plasmodium falciparum = experiment: Anti-malaria testing; assay type: cell-based
Vero Cells = experiment: Cytotoxicity Assay, CellTiter-Glo Luminescent Cell Viability Assay
H37Rv Colorado strain [1] = experiment: MBC Determination with H37Rv Colorado strain (Table 9); assay type: cell-based; conditions: Mycobacterium tuberculosis; Performed with H37Rv
B. pseudomallei = experiment: microbe, parasite or virus in culture; assay type: cell-based; conditions: Burkholderia pseudomallei, read-out: MIC B. pseudomallei
H37Rv Colorado strain [2] = experiment: TB MIC Testing (Table 9); assay type: cell-based; conditions: Mycobacterium tuberculosis, read-out: MIC Value, Standard Test Strain H27Rv
E. coli = experiment: microbe, parasite or virus in culture; assay type: cell-based; conditions: Escherichia coli, read-out: MIC E. coli
B. mallei = experiment: microbe, parasite or virus in culture; assay type: cell-based; conditions: Burkholderia mallei, read-out: MIC B. mallei
TB = experiment: DMID TB MIC Results (Table 10); assay type: cell-based; conditions: Mycobacterium tuberculosis; solvent DMSO
F. tularensis = experiment: microbe, parasite or virus in culture; assay type: cell-based; conditions: Francisella tularensis, read-out: MIC F. tularensis (Original Test)
P. aeruginosa = experiment: microbe, parasite or virus in culture; assay type: cell-based; conditions: Pseudomonas aeruginosa, read-out: MIC P. aeruginosa
B. anthracis = experiment: microbe, parasite or virus in culture; assay type: cell-based; conditions: Bacillus anthracis, read-out: MIC B. anthracis
Y. pestis = experiment: microbe, parasite or virus in culture; assay type: cell-based; conditions: Yersinia pestis, read-out: MIC Y. pestis
[3] = test system: fresh human peripheral blood mononuclear cells
[4] = test system: HIV-1 ROJO (low passage clinical strain); experiment: PBMC assay, virus production by reverse transcriptase activity; assay type: cell-based
Yersinia pestis = experiment: microbe, parasite or virus in culture; assay type: cell-based; conditions: Yersinia pestis
Bacillus anthracis = experiment: microbe, parasite or virus in culture; assay type: cell-based; conditions: Bacillus anthracis
Francisella tularensis = experiment: microbe, parasite or virus in culture; assay type: cell-based; conditions: Francisella tularensis
Burkholderia mallei = experiment: microbe, parasite or virus in culture; assay type: cell-based
HIV-1 = experiment: CEM-SS microtiter antiviral XTT cytoprotection assay; assay type: cell-based
[5] = test system: Flu A H1N1 New Caledonia/20/99; experiment: Anti-influenza testing, visual and NR assays; assay type: cell-based, influenza A H1N1; conditions: Flu A H1N1
[6] = test system: Flu A H3N2 California/7/04; experiment: Anti-influenza testing, visual and NR assays; assay type: cell-based, influenza A H3N2; conditions: Flu A H3N2
[7] = average of Test 1 and Test 2, read-out: Average IC50

## C[C@@H]1COc2c(N3CCN(C(=N)NC(=N)NCCCCCCNC(=N)NC(=N)N4CCN(c5c(F)cc6c(=O)c(C(=O)O)cn7c6c5OC[C@@H]7C)CC4)CC3)c(F)cc3c(=O)c(C(=O)O)cn1c23 [BVS-85A (XVII)]
Plasmodium falciparum; [7]
  IC50: 7.26 µM
Plasmodium falciparum; read-out: IC50 Test 1
  IC50: 5.45 µM
Plasmodium falciparum; read-out: IC50 Test 2
  IC50: 9.06 µM
Vero Cells; 0.01 μg/ml
  % Viability: 109%
Vero Cells; 0.02 μg/ml
  % Viability: 109%
Vero Cells; 5 μg/ml
  % Viability: 106%
Vero Cells; 10 μg/ml
  % Viability: 101%
Vero Cells; 20 μg/ml, vs […] DMSO controls
  % Viability: 107%
H37Rv Colorado strain [1]
  MBC: 1.25 mg/L (≈ 1.32 µM)
B. pseudomallei
  MIC: 8 mg/L (≈ 8.47 µM)
H37Rv Colorado strain [2]
  MIC: 1.25 mg/L (≈ 1.32 µM)
E. coli
  MIC: < 0.06 mg/L
B. mallei
  MIC: 0.5 mg/L (≈ 0.529 µM)
TB
  IC50: 0.53 mg/L (≈ 0.561 µM)
  IC90: 0.57 mg/L (≈ 0.603 µM)
  MIC: 0.625 mg/L (≈ 0.661 µM)
F. tularensis
  MIC: < 0.06 mg/L
P. aeruginosa
  MIC: 0.5 mg/L (≈ 0.529 µM)
B. anthracis
  MIC: < 0.06 mg/L
Y. pestis
  MIC: 0.06 to 0.12 mg/L (≈ 0.0635 to 0.127 µM)

## Cc1cn([C@H]2C[C@H](N=[N+]=[N-])[C@@H](CO)O2)c(=O)[nH]c1=O [AZT, reference compound]
[3]
  CC50: > 4 µM
[3]; 0.0013 μM
  TOXICITY VALUES (XTT) % CC: 90.1%
[3]; 0.013 μM
  TOXICITY VALUES (XTT) % CC: 99.3%
[3]; 0.04 μM
  TOXICITY VALUES (XTT) % CC: 92.1%
[3]; 0.13 μM
  TOXICITY VALUES (XTT) % CC: 89.0%
[3]; 0.4 μM
  TOXICITY VALUES (XTT) % CC: 98.8%
[3]; 1.3 μM
  TOXICITY VALUES (XTT) % CC: 84.8%
[3]; 4 μM
  TOXICITY VALUES (XTT) % CC: 86.2%
[4]; 0.0013 μM
  RT ACTIVITY % VC: 104.6%
[4]; 0.013 μM
  RT ACTIVITY % VC: 77.3%
[4]; 0.04 μM
  RT ACTIVITY % VC: 81.7%
[4]; 0.13 μM
  RT ACTIVITY % VC: 32.3%
[4]; 0.4 μM
  RT ACTIVITY % VC: 3.8%
[4]; 1.3 μM
  RT ACTIVITY % VC: 8.8%
[4]; 4 μM
  RT ACTIVITY % VC: 0.7%
[4]; ROJO in PBMC, RT activity
  IC50: 0.1 µM

## CC1COc2c(N3CCN(C(=N)NC#N)CC3)c(F)cc3c(=O)c(C(=O)O)cn1c23 (stereo not drawn) [BVS-60C (XVII)]
Plasmodium falciparum; [7]
  IC50: 6.11 µM
Plasmodium falciparum; read-out: IC50 Test 1
  IC50: 6.11 µM
Vero Cells; 0.01 μg/ml
  % Viability: 93%
Vero Cells; 0.02 μg/ml
  % Viability: 95%
Vero Cells; 5 μg/ml
  % Viability: 92%
Vero Cells; 10 μg/ml
  % Viability: 88%
Vero Cells; 20 μg/ml, vs […] DMSO controls
  % Viability: 96%
H37Rv Colorado strain [1]
  MBC: 0.625 mg/L (≈ 1.51 µM)
B. pseudomallei
  MIC: 1 to 2 mg/L (≈ 2.41 to 4.83 µM)
Yersinia pestis
  MIC90: < 4 mg/L
H37Rv Colorado strain [2]
  MIC: 0.312 mg/L (≈ 0.753 µM)
E. coli
  MIC: 0.06 to 0.12 mg/L (≈ 0.145 to 0.29 µM)
B. mallei
  MIC: 1 mg/L (≈ 2.41 µM)
TB
  IC50: 0.22 mg/L (≈ 0.531 µM)
  IC90: 0.23 mg/L (≈ 0.555 µM)
  MIC: 0.312 mg/L (≈ 0.753 µM)
F. tularensis
  MIC: < 0.06 mg/L
P. aeruginosa
  MIC: 2 mg/L (≈ 4.83 µM)
B. anthracis
  MIC: < 0.06 mg/L
Bacillus anthracis
  MIC90: ≤ 0.25 mg/L
Francisella tularensis
  MIC90: < 4 mg/L
Y. pestis
  MIC: 0.06 mg/L (≈ 0.145 µM)
Burkholderia mallei; Burkholderia mallei
  MIC90: < 4 mg/L

## CC[C@H]1OC(=O)[C@H](C)[C@@H](O[C@H]2C[C@@](C)(OC)[C@@H](O)[C@H](C)O2)[C@H](C)[C@@H](O[C@@H]2O[C@H](C)C[C@H](N(C)C)[C@H]2O)[C@](C)(O)C[C@@H](C)CN(C)[C@H](C)[C@@H](O)[C@]1(C)O [Azithromycin, azithromycin, reference compound]
Burkholderia mallei
  MIC Range: 0.0625 to 1 mg/L
Burkholderia mallei; Burkholderia mallei
  MIC50: 0.5 mg/L (≈ 0.668 µM)
Burkholderia mallei; Burkholderia mallei, read-out: MIC90
  MIC90: 1 mg/L (≈ 1.34 µM)

## Nc1ccn([C@H]2CC[C@@H](CO)O2)c(=O)n1 [DDC, di-deoxycytosine, reference compound]
CEM-SS cells; 0.00003 μM
  % CELL VIABILITY: 100%
CEM-SS cells; 0.0001 μM
  % CELL VIABILITY: 93%
CEM-SS cells; 0.00032 μM
  % CELL VIABILITY: 99%
CEM-SS cells; 0.001 μM
  % CELL VIABILITY: 100%
CEM-SS cells; 0.0032 μM
  % CELL VIABILITY: 100%
CEM-SS cells; 0.01 μM
  % CELL VIABILITY: 100%
CEM-SS cells; 0.032 μM
  % CELL VIABILITY: 100%
CEM-SS cells; 0.1 μM
  % CELL VIABILITY: 96%
CEM-SS cells; 0.32 μM
  % CELL VIABILITY: 97%
CEM-SS cells; 1 μM
  % CELL VIABILITY: 100%
CEM-SS cells; 3.2 μM
  % CELL VIABILITY: 100%
CEM-SS cells; 10 μM
  % CELL VIABILITY: 100%
HIV-1; 0.00003 μM
  % RED. IN VIRAL CPE: 1%
HIV-1; 0.0001 μM
  % RED. IN VIRAL CPE: 5%
HIV-1; 0.00032 μM
  % RED. IN VIRAL CPE: 6%
HIV-1; 0.001 μM
  % RED. IN VIRAL CPE: 4%
HIV-1; 0.0032 μM
  % RED. IN VIRAL CPE: 8%
HIV-1; 0.01 μM
  % RED. IN VIRAL CPE: 9%
HIV-1; 0.032 μM
  % RED. IN VIRAL CPE: 75%
HIV-1; 0.1 μM
  % RED. IN VIRAL CPE: 81%
HIV-1; 0.32 μM
  % RED. IN VIRAL CPE: 92%
HIV-1; 1 μM
  % RED. IN VIRAL CPE: 86%
HIV-1; 3.2 μM
  % RED. IN VIRAL CPE: 100%
HIV-1; 10 μM
  % RED. IN VIRAL CPE: 100%

## N=C(NC(=N)N1CCSCC1)NC1C2CC3CCC1(NC(=N)NC(=N)N1CCSCC1)CC3C2 (stereo not drawn) [BVS-20A (XII)]
Bacillus anthracis; read-out: MIC90
  MIC90: ≤ 4 mg/L
Francisella tularensis
  MIC90: < 4 mg/L

## O=C1C2C=CC=C([N+](=O)[O-])C2(C(=O)O)C(c2ccccc2)N1c1ccc(O)cc1 (stereo not drawn) [BVS-45A (I)]
[5]
  activity by visual and NR assays: highly active
[6]
  activity by visual and NR assays: highly active
